Test results: patent US20240261443A1, “COMPOUNDS AND COMPOSITIONS USEFUL AS RADIOTRACERS FOR IMAGING OF REACTIVE OXIDATIVE SPECIES” (Wake Forest University Health Sciences, priority 2019, published 2024)

What was measured:
Ex vivo serum stability = assay type: in vitro ADME; details: human serum, 37° C., after 120 min of tracer synthesis
Method: The ex vivo serum stability of [^18F]KS1 and [^18F]KS2 were analyzed in human serum samples, following previously published methods (Sai et al., Peptide-based PET imaging of the tumor restricted IL13RA2 biomarker. Oncotarget 2017, 5; Sattiraju et al., IL13RA2 targeted alpha particle therapy against glioblastoma. Journal of Nuclear Medicine 2016, 57 (supplement 2), 634; Wang et al., Evaluation of F-18-labeled amino acid derivatives and [18F]FDG as PET probes in a brain tumor-bearing animal model. Nuclear Medicine and Biology 2005, 32 (4), 367-375). Briefly, radiotracer was added to the human serum sample, and incubated at 37° C. Radioactive serum mixture was injected into the QC-HPLC system at 5 min, 30 min, 1 h, 1.5 h, 2 h, 2.5 h, and 3 h post radiotracer synthesis. Radiolysis through defluorination and/or oxidation of the radiotracers (if any) can be seen as new radiochemical peaks at different retention times (Rt) than the original product peak (Jin et al., A promising F-18 labeled PET radiotracer (-)-[18F]VAT for assessing the VAChT in vivo. Journal of Nuclear Medicine 2015, 56 (supplement 3); Koglin et al., [F-18]BAY 85-8050: A novel tumor specific probe for PET imaging-Preclinical results. Journal of Nuclear Medicine 2010, 51 (supplement 2), 1535; […] et al., Imaging COX-2 expression in cancer using PET/SPECT radioligands: current status and future directions. […]

PC3 tumors = assay: microPET imaging in PC3 tumor-bearing mice; assay type: in vivo; details: ROI analysis
SCC-61 tumors = assay: Post-PET biodistribution, SCC-61 tumor-bearing mice; assay type: in vivo
Method: Subsequently, post-PET biodistribution was performed in the same SCC-61 or rSCC-61 tumor-bearing mice injected with [^18F]KS1 (FIG. 16). […] High kidney and liver uptake were common with [^18F]radiotracer's distribution at 30 min post-injection.

[1] = system: SCC-61, G48, MD3-MB-231 and PC3 cancer cell lines; assay: MTT assay, potency versus ascorbate across patient-derived cancer cell lines; assay type: cell-based, human; details: Example 13; SCC-61, PC3, and MD3-MB-231 cells
Method: The cells were seeded at density 5×10^3 cells/well. After 24 h pre-incubation period, cells were treated with 0.01 mM to 2.0 mM of freshly prepared KS1 and KS2 along with ascorbate (n=3) for 48 h. 0.2% of DMSO served as vehicle control. After 48 h, the solutions were removed from all plates and MTT assays performed following the published protocols. IC50 values are presented as mean±SD from at least three independent experiments.
There is growing evidence for a therapeutic role of ascorbate against several cancers (Creagan et al., Failure of High-Dose Vitamin C (Ascorbic Acid) Therapy to Benefit Patients with Advanced Cancer. New England Journal of Medicine 1979, 301 (13), 687-690; Chen et al., Pharmacologic ascorbic acid concentrations selectively kill cancer cells: action as a pro-drug to deliver hydrogen peroxide to tissues. Proceedings of the National Academy of Sciences of the United States of America 2005, 102 (38), 13604-13609; Prasad et al., High Doses of Multiple Antioxidant Vitamins: Essential Ingredients in Improving the Efficacy of Standard Cancer Therapy. Journal of the American College of Nutrition 1999, 18 (1), 13-25). […]

SMILES | intact in serum (Ex vivo serum stability) [%] | tumor uptake with nonradioactive KS1 pretreatment, lower than baseline (PC3 tumors; KS1 15 mg/kg 45 min before tracer) [fold] | tumor uptake on mPET scans (PC3 tumors; baseline) | target (tumor) to non-target (muscle) ratio (SCC-61 tumors; SCC-61 tumors, post-PET) | enrichment in SCC-61 tumors over rSCC-61 tumors (SCC-61 tumors; tumor: muscle ratio) [fold] | selectivity (potency) versus ascorbate [1] [fold]
O=C1O/C(=C/CCl)C(O)=C1OCc1ccc(OCC[18F])cc1 [[^18F]KS1] | ~90 | ~3 | high tumor uptake | 10.93 | ~2.5 | –
O=C1O/C(=C/CCl)C(O)=C1OCc1ccc(OCCF)cc1 [KS1, (E)-5-(2-chloroethylidene)-3-(4-(2-fluoroethoxy)benzyloxy)-4-hydroxyfuran-2(5H)-one] | – | – | – | – | – | 1.6 to 2.5
